According to EP4000614A1, “EFLOXATE FOR USE AS ANTIVIRAL AGENT” (Consejo Superior de Investigaciones Científicas (CSIC), priority 2020, dated 2022):

Assays:
Vero-E6 cells = experiment: Cytotoxicity measurement by MTT assay; type: cell-based; details: 48 hours
Description: (§1) Cytotoxicity measurement by MTT assays (MTT assay: cell viability assay that infers reductive capacity of the cells via formation of formazan precipitates. Overall estimation of cell metabolic rate): Vero-E6 cell monolayers were treated with a wide range of compound concentrations (from 50 to 0.78 µM) and forty-eight hours later they were subjected to MTT assays following the manufacturer's instructions. Compound concentration leading to a 50% of cytotoxicity (CC50) were determined (Table 2).

[1] = Cytotoxicity measurement by MTT assay; type: cell-based; details: African green monkey, Vero-E6 cells
Description: as §1

RD114-pseudotypes = type: cell-based
229E-GFP virus = experiment: microbe, parasite or virus in culture; type: cell-based, human 229E coronavirus; details: 72 h
[2] = tested on: pseudotypes based on vesicular stomatitis virus (VSV-G) glycoprotein; type: cell-based
SARS-CoV-2 E RNA = experiment: Intracellular viral RNA quantitation by RT-qPCR in Vero-E6 cells; type: cell-based; details: for VIRAL LOAD MOI 0.001 (% OF CONTROL): MOI 0.001, 48 hours, Vero-E6; for LOG DROP: relative reduction in viral RNA accumulation in log scale
in vitro = details: human
[3] = tested on: SARS-CoV-2 strain NL/2020; experiment: SARS-CoV-2 cell monolayer protection assay (crystal violet) in Vero-E6 cells
[4] = tested on: SARS-CoV-2 S protein-pseudotyped retroviral vectors; type: cell-based

## CCOC(=O)COc1ccc2c(=O)cc(-c3ccccc3)oc2c1 [Efloxate, efloxate]
Vero-E6 cells
  HIGHEST NON-TOXIC CONCENTRATION (MTT): 12.5
[1]
  CC50 at 48 h: > 50 µM
RD114-pseudotypes
  RD114pp (% of control): 153.15 % of control
229E-GFP virus; human coronavirus 229E
  EC50: 1.6 µM
229E-GFP virus; unidentified human coronavirus
  EC90: 5 µM
[2]
  VSVpp (% of control): 106.24 % of control
SARS-CoV-2 E RNA; dose 12.5 µM
  VIRAL LOAD MOI 0.001 (% OF CONTROL): 27.42 % OF CONTROL
  LOG DROP: 0.55
SARS-CoV-2 E RNA; dose 25 µM
  VIRAL LOAD MOI 0.001 (% OF CONTROL): 24.34 % OF CONTROL
  LOG DROP: 0.6
SARS-CoV-2 E RNA; dose 35 µM
  VIRAL LOAD MOI 0.001 (% OF CONTROL): 0.00 % OF CONTROL
  LOG DROP: 5.5
SARS-CoV-2 E RNA; dose 50 µM
  VIRAL LOAD MOI 0.001 (% OF CONTROL): 0.06 % OF CONTROL
  LOG DROP: 3.2
In vitro
  CC50 at 72 h: 35 µM
[3]; Maximum concentration that protects cells (100%) from the cytopathic effect, Vero-E6, MOI 0.001, 72 hours
  PC MAX: 50 µM
[3]; Minimum concentration that protects cells (100%) from the cytopathic effect, Vero-E6, MOI 0.001, 72 hours
  PC MIN: 25 µM
[3]; human coronavirus, including SARS-CoV-2
  antiviral activity at non-cytotoxic concentrations: 12.5 to 50 µM
[4]
  Spp (% of control): 16.68 % of control
  pseudotype entry selectivity: interfere selectively with Spp entry
